Assay results from patent publication US20250222068A1, “COMPOSITION FOR PREVENTING OR TREATING LUPUS COMPRISING RECOMBINANT STABILIZED GALECTIN-9 PROTEIN” (GBIOLOGICS INC., priority 2022, published 2025).

Test: Body weight assessment in an in vivo model of systemic lupus erythematosus
Conditions: mycophenolate 60 mg/kg PO once daily, 9 weeks, MRL/FAS^lpr mice, FIG. 1

Which “changes in body weight” value does the source give for `COc1c(C)c2c(c(O)c1C/C=C(\C)CCC(=O)O)C(=O)OC2` [Mycophenolate, mycophenolate] here?
Its value is “no statistically significant changes in body weight”.
